Source: US8026359B2, “Fungicidal heterocyclic amines” (E.I. du Pont de Nemours and Company, priority 2007, dated 2011)
Marks after values point to notes of the source that are not given here.

Key:
Assay type in all cases: in vivo
[1] = test system: Erysiphe graminis f. sp. tritici; assay: Test A: wheat powdery mildew, preventive spray on wheat seedlings
Procedure, shortened: (§1)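 Compounds dissolved in acetone (3% of final volume), then suspended in 50/50 acetone/purified water with 250 ppm Trem® 014 surfactant. Sprayed to run-off on seedlings as a 200 ppm (equivalent to 500 g/ha) or 40 ppm suspension, preventively.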

[2] = test system: Puccinia recondita f. sp. tritici; assay: Test B: wheat leaf rust, preventive spray on wheat seedlings; conditions: for pest or weed control at 200 ppm: Puccinia recondita, 192 h, read-out: Test B disease control rating
Procedure, shortened: as §1

[3] = test system: Septoria nodorum; assay: Test C: wheat glume blotch, preventive spray on wheat seedlings; conditions: for pest or weed control at 200 ppm: Parastagonospora nodorum, 216 h, read-out: Test C disease control rating
Procedure, shortened: as §1

[4] = test system: Septoria tritici; assay: Test D: wheat leaf blotch, preventive spray on wheat seedlings; conditions: for pest or weed control at 200 ppm: Zymoseptoria tritici, 504 h, read-out: Test D disease control rating
Procedure, shortened: as §1

[5] = test system: Fusarium graminearum; assay: whole plant or invertebrate; conditions: for pest or weed control at 200 ppm: Fusarium graminearum, in Triticum aestivum, 192 h, read-out: Test E disease control rating
[6] = test system: Botrytis cinerea; assay: Test F: tomato Botrytis, preventive spray on tomato seedlings; conditions: for pest or weed control at 200 ppm: Botrytis cinerea, 120 h, read-out: Test F disease control rating
Procedure, shortened: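 Preventive run-off spray onto tomato seedlings at 200 ppm (equivalent to 500 g/ha) or 40 ppm. Suspensions: compound predissolved in acetone at 3% of final volume, then taken up in acetone/purified water 50/50 containing 250 ppm Trem® 014 surfactant.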

[7] = test system: Alternaria solani; assay: Test H: tomato early blight, preventive spray on seedlings; conditions: for pest or weed control at 200 ppm: Alternaria solani, 168 h, read-out: Test H disease control rating
From the text: General protocol for preparing test suspensions for Tests A-R: The test compounds were first dissolved in acetone in an amount equal to 3% of the final volume and then suspended at the desired concentration (in ppm) in acetone and purified water (50/50 mix) containing 250 ppm of the surfactant Trem® 014 (polyhydric alcohol esters). The resulting test suspensions were then used in tests A-R. In Tests A-M, compounds were sprayed as a 200 ppm test suspension (equivalent to a rate of 500 g/ha) or as a 40 ppm test suspension to the point of runoff on the test plants. In Tests N-R, compounds were sprayed as a 100 g/ha test suspension (equivalent to a rate of 100 ppm) on the test plants at an application volume of 1000 L/ha. The test suspension was sprayed to the point of run-off on wheat seedlings.

[8] = test system: Colletotrichum orbiculare; assay: Test I: cucumber Colletotrichum anthracnose, preventive spray on cucumber seedlings; conditions: 100 = 100% disease control, 0 = no control relative to controls; for pest or weed control at 200 ppm: Colletotrichum orbiculare, 144 h, read-out: Test I disease control rating; for Test I disease control rating: 200 ppm
Procedure, shortened: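 Preventive foliar spray to run-off on cucumber seedlings, at 200 ppm (stated as equal to 500 g/ha) or 40 ppm. Test suspensions were made in acetone/water 50/50 containing 250 ppm Trem 014, after first dissolving compound in acetone at 3% of final volume.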

[9] = 200 ppm, 100 = 100% disease control, 0 = no control relative to controls

COC[C@H](C)Nc1nccc(-c2ncnc(Nc3ccnc(F)c3)n2)n1 [Compound 31]
Test A disease control rating [1, 9]: 0%
Test B disease control rating [2, 9]: 100%
Test C disease control rating [3, 9]: 100%
Test D disease control rating [4, 9]: 88%
Test E disease control rating [5, 9]: 89%
Test F disease control rating [6, 9]: 99%
Test H disease control rating [7, 9]: 92%

COC[C@H](C)Nc1nccc(-c2ncnc(Nc3cc(F)cc(C#N)c3)n2)n1 [Compound 36]
Test A disease control rating ([1]; 40 ppm (marked *)): 0* %
Test B disease control rating ([2]; 40 ppm (marked *)): 99* %
Test C disease control rating ([3]; 40 ppm (marked *)): 100* %
Test D disease control rating ([4]; 40 ppm (marked *)): 29* %
Test E disease control rating ([5]; 40 ppm (marked *)): 91* %
Test F disease control rating ([6]; 40 ppm (marked *)): 99* %
Test H disease control rating ([7]; 40 ppm (marked *)): 99* %

COC[C@H](C)Nc1nccc(-c2ncnc(Nc3ccnc(Cl)c3)n2)n1 [Compound 27]
Test A disease control rating [1, 9]: 0%
Test B disease control rating [2, 9]: 100%
Test C disease control rating [3, 9]: 99%
Test D disease control rating [4, 9]: 75%
Test E disease control rating [5, 9]: 97%
Test F disease control rating [6, 9]: 94%
Test H disease control rating ([7]; 40 ppm (marked *)): 100* %

COC(C)CNc1nccc(-c2ccnc(Nc3cccc(F)c3)c2)n1 (stereo not shown) [Compound 96, 4-[2-[(3-fluorophenyl)amino]-4-pyridinyl]-N-(2-methoxypropyl)-2-pyrimidinamine]
pest or weed control at 200 ppm [2, 9]: 85%
pest or weed control at 200 ppm [3, 9]: 99%
pest or weed control at 200 ppm [4, 9]: 28%
pest or weed control at 200 ppm [5]: 0%
pest or weed control at 200 ppm [6, 9]: 86%
pest or weed control at 200 ppm [7, 9]: 0%
pest or weed control at 200 ppm [8]: 0%

CC(C)(C)Nc1nccc(-c2ncnc(Nc3cccc(F)c3)n2)n1 [Compound 10]
Test B disease control rating [2, 9]: 93%
Test C disease control rating [3, 9]: 100%
Test D disease control rating [4, 9]: 10%
Test E disease control rating [5, 9]: 61%
Test F disease control rating [6, 9]: 0%
Test H disease control rating [7, 9]: 97%
Test I disease control rating [8]: 99%

Cc1cccc(Cl)c1Nc1nccc(-c2ncnc(NC3CCOCC3)n2)n1 [Compound 104, 4-[2-[(2-chloro-6-methylphenyl)amino]-4-pyrimidinyl]-N-(tetrahydro-2H-pyran-4yl)-1,3,5-triazin-2-amine]
pest or weed control at 200 ppm [2, 9]: 99%
pest or weed control at 200 ppm [3, 9]: 94%
pest or weed control at 200 ppm [4, 9]: 10%
pest or weed control at 200 ppm [5]: 0%
pest or weed control at 200 ppm [6, 9]: 0%
pest or weed control at 200 ppm [7, 9]: 0%
pest or weed control at 200 ppm [8]: 0%

COC[C@H](C)Nc1nccc(-c2ncnc(Nc3cccc(F)c3)n2)n1 [Compound 5, N-(3-fluorophenyl)-4-[2-[[(1S)-2-methoxy-1-methylethyl]amino]-4-pyrimidinyl]-1,3,5-triazin-2-amine]
pest or weed control at 200 ppm [2, 9]: 100%
pest or weed control at 200 ppm [3, 9]: 100%
pest or weed control at 200 ppm [4, 9]: 98%
pest or weed control at 200 ppm [5]: 98%
pest or weed control at 200 ppm [6, 9]: 80%
pest or weed control at 200 ppm [7, 9]: 0%
pest or weed control at 200 ppm [8]: 99%

CSCC(C)Nc1nccc(-c2ccnc(Nc3cccc(Cl)c3)c2)n1 (stereo not shown) [Compound 95, 4-[2-[(3-chlorophenyl)amino]-4-pyridinyl]-N-[1-methyl-2-(methylthio)ethyl]-2-pyrimidinamine]
pest or weed control at 200 ppm [2, 9]: 88%
pest or weed control at 200 ppm [3, 9]: 94%
pest or weed control at 200 ppm [4, 9]: 77%
pest or weed control at 200 ppm [5]: 0%
pest or weed control at 200 ppm [6, 9]: 0%
pest or weed control at 200 ppm [7, 9]: 0%
pest or weed control at 200 ppm [8]: 0%

CC(CO)Nc1nccc(-c2ncnc(Nc3cccc(F)c3)n2)n1 (stereo not shown) [Compound 7]
Test B disease control rating [2, 9]: 99%
Test C disease control rating [3, 9]: 100%
Test D disease control rating [4, 9]: 87%
Test E disease control rating [5, 9]: 0%
Test F disease control rating [6, 9]: 0%
Test H disease control rating [7, 9]: 0%
Test I disease control rating [8]: 96%

COC[C@H](C)Nc1nccc(-c2ncnc(Nc3ccccc3F)n2)n1 [Compound 17]
Test B disease control rating [2, 9]: 86%
Test C disease control rating [3, 9]: 99%
Test D disease control rating [4, 9]: 66%
Test E disease control rating [5, 9]: 0%
Test F disease control rating [6, 9]: 97%
Test H disease control rating [7, 9]: 90%
Test I disease control rating [8]: 98%
